Experimental data reported in patent US10973880B2, “Compositions and methods for treating pulmonary hypertension” (Acceleron Pharma Inc., priority 2016, dated 2021).

Key:
[1] = system: Sugen Hypoxia model of PAH (semaxanib/hypoxia); assay: Sugen Hypoxia rat model of PAH; type: in vivo; settings: 0 normal, 1 minimal, 2 mild, 3 moderate, 4 marked
Experimental: The effects of an ActRIIA-mFc fusion protein (ActRIIA-mFc homodimer as described in Example 1 and sildenafil (a phosphodiesterase-5 inhibitor approved for the treatment of PAH) were further examined the Sugen Hypoxia model of PAH. In this model, rats receive daily doses of semaxanib and are placed in a low oxygen environment (approximately 13% oxygen) to induce PAH 24 hours prior to start of therapy.
Rats were separated into different treatment groups (10 mice per group): 1) treatment with semaxanib (200 mg/kg administered s.c. as a single dose daily)/hypoxia and Tris buffered saline (administered i.p. as 1 ml/kg, every three days) (vehicle treatment group), 2) treatment with an ActRIIA-mFc polypeptide (10 mg/kg administered i.p. every three days) and semaxanib (200 mg/kg administered s.c. as a single dose daily)/hypoxia, 3) treatment with sildenafil (30 mg/kg administered orally twice daily) and semaxanib (200 mg/kg administered s.c. as a single dose daily)/hypoxia, and 4) control rats (Tris buffered saline administered i.p. as 1 ml/kg, every three days). Rats were treated for 28 days. Body weights were recorded prior to first dose on Day 1 and then weekly throughout the study.
On day 28, rats were anesthetized by an intraperitoneal injection of ketamine/xylazine (80/10 mg/kg). […] Hypertrophy was assessed, in part, by calculating RV/LV+S. The lungs were also weighed. […]

[2] = system: rat model of pulmonary arterial hypertension (PAH), monocrotaline (MCT) induced; assay: monocrotaline rat model of pulmonary arterial hypertension; type: in vivo, Sprague Dawley rats
Experimental: The effects of an ActRIIA-mFc fusion protein (ActRIIA-mFc homodimer as described in Example 1), an ALK4-Fc-ActRIIB-Fc heterodimer (as described in Examples 12 and 13), and sildenafil (a phosphodiesterase-5 inhibitor approved for the treatment of PAH) were examined in a rat model of pulmonary arterial hypertension (PAH). In this model, Sprague Dawley rats received a […] injection of monocrotaline (MCT) to induce PAH 24 hours prior to start of therapy.
Rats were separated into different treatment groups (10 mice per group): 1) treatment with MCT (60 mg/kg administered i.p. as a single dose at day 1 of study) and Tris buffered saline (i.p. as 1 ml/kg, every three days) (vehicle treatment group), 2) treatment with an ActRIIA-mFc polypeptide (10 mg/kg administered i.p. every three days) and MCT (60 mg/kg administered i.p. as a single dose at day 1 of study), 3) treatment with an ALK4-Fc:ActRIIB-Fc heterodimer (10 mg/kg administered i.p. every three days) and MCT (60 mg/kg administered i.p. as a single dose at day 1 of study), 4) treatment with sildenafil (30 mg/kg administered orally twice daily) and MCT (60 mg/kg administered i.p. as a single dose at day 1 of study), and 5) control rats (Tris buffered saline administered i.p. as 1 ml/kg, every three days). Rats were treated for 28 days. Body weights were recorded prior to first dose on Day 1 and then weekly throughout the study.
On day 28, rats were anesthetized by an intraperitoneal injection of ketamine/xylazine (80/10 mg/kg). An incision was made in the neck, and a jugular vein was isolated and ligated anteriorly. A fluid-filled pressure catheter was introduced into the right jugular vein to measure pulmonary artery pressure (PAP). Another incision was made in the inguinal region, and femoral artery was isolated and ligated anteriorly. A Millar pressure catheter was introduced into a femoral artery to measure systolic arterial pressure, diastolic pressure, and heart rate. Mean arterial pressure and right PAP were monitored using the Notocord HEM (Croissy sur Seine, Frnace) v3.5 data capture system for approximately 5-10 minutes until stable measurements were obtained. During the measurements, rats were maintained at approximately 37° C. on a heating pad and body temperature was monitored throughout the procedure with a rectal temperature probe. At the conclusion of the procedure, rats were euthanized, and the hearts and lungs were removed. The entire heart was weighed. Next, the atria were removed and the left ventricle with septum (LV+S) was separated from the right ventricle (RV). The ventricles were weighed separately. Hypertrophy was assessed, in part, by calculating RV/LV+S. The lungs were also weighed.
Similar trends were observed on vessel muscularity based on histopathologic scoring. After staining tissue samples to detect αSMA/elastin, 100 pulmonary arterioles, between 10 μm and 50 μm in size, per animal were categorized as non-muscularized, partially muscularized, or completely muscularized. Pulmonary arterioles from vehicle treated rats were determined to be 62.3% completely muscularized, 36.4% partially muscularized, and 1.4% non-muscularized. […] Histopathological scoring of smooth muscle hypertrophy of pulmonary arterioles were also recorded as follows: 0 (normal), 1 (minimal), 2 (mild), 3 (moderate), or 4 (marked).

In the case of “ActRIIA-mFc: extracellular domain of human ActRIIa fused to a mouse Fc domain with a minimal linker; homodimer”, the “smooth muscle hypertrophy of pulmonary arterioles, average histopathological score” value [1] was 1.4 score, the “smooth muscle hypertrophy of pulmonary arterioles, average histopathological score” value ([2]; 0 normal, 1 minimal, 2 mild, 3 moderate, 4 marked) was 1.6 score and the “improvement in body weight” value ([2]; 28 days, compared to monocrotaline treated rats, proteins 10 mg/kg i.p. every three days, sildenafil 30 mg/kg orally twice daily) was “did not show improvement”.
